Assays:
[1] = cited from earlier work
Text: With the target NPP-caged peptides in hand, we examined their photochemical reactivity in cell-compatible aqueous solution (phosphate-buffered saline, pH 7.2). […] Collectively, they were consumed 25–40 ...

locus coeruleus = details: bath applied; cited from earlier work
Text: Although extracellular peptidases are known to limit peptide concentrations in the nervous system, how they shape the temporal dynamics of neuropeptide signaling in the brain is poorly understood. For example, rapid proteolysis by peptidases localized near peptide receptors might limit the peak concentration of peptide and thus the degree of receptor activation.

CCK2R = target: T1, CCK2R (Mus musculus, UniProt P56481); experiment: Whole-cell recording of membrane currents, PV interneurons of hippocampal CA1, acute brain slices; assay type: cell-based; details: antagonist 1 μM
T1 construct: from tissue; host or cells: acute mouse brain slices, PV interneurons of hippocampal CA1 (PvalbCre; Ai14 mice)
T1 sequence (P56481 1-453): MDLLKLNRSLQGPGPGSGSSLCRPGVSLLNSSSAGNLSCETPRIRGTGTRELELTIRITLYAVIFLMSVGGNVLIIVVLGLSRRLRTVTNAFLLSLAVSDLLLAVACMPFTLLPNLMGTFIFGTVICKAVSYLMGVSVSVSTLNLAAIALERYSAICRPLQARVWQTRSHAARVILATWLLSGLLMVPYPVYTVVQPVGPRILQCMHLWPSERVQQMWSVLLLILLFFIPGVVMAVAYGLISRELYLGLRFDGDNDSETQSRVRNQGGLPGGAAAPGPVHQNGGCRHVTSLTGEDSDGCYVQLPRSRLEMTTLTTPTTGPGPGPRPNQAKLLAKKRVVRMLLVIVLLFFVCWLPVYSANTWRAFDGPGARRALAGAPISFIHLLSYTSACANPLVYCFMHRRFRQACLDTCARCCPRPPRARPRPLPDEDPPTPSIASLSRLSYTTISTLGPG
Text: Photoactivatable neuropeptides are powerful tools that can drive studies into the mechanisms of endogenous receptor signaling in acute brain slices.[3],[8],[40] To determine if NPP-caged peptides are compatible with such experiments, we established electrophysiological assays for measuring the activation of GRPR, OTR, NK1R, and CCK2R in acute brain slices taken from transgenic mice. These assays involved whole cell recordings of membrane currents from genetically defined neurons located in different brain regions where endogenous receptor activation produces inward, excitatory currents that facilitate action potential firing. Neuropeptide receptor-expressing cells were identified for fluorescence-guided, targeted electrophysiological recordings using transgenic mice that contain transgenes encoding Cre-recombinase under a promotor that is specific to the cell of interest, as well as a Cre-dependent tdTomato fluorescent protein via the Ai14 (Rosa26-lsl-tdTomato) reporter strain. […]
(A) Average inward currents over time after bath application of GRP(14-27)-NPP (3 μM, n = 5 cells from 4 mice) or GRP(14-27) (300 nM, n = 5 from 4 mice), recorded from fluorescently labeled VIP interneurons in layer 1 of the motor cortex. Data are expressed as the mean ± SEM. […] Data are expressed as the mean ± SEM. […] Data are expressed as the mean ± SEM. […] Data are expressed as the mean ± SEM. […]

[2] = test system: its receptors (GRP receptors); details: cited from earlier work
Text: This motif is associated with immature neuropeptides that are likely not intended for receptor binding. […] We therefore reasoned that inclusion of the entire C-terminal amidation sequence might be particularly effective at reducing binding affinity if incorporated into C-terminally caged peptides, especially due to the presence of bulky, positively charged amino acids found in the dibasic motif. To mimic the proneuropept ...

## COc1ccc([N+](=O)[O-])c2c1CCN2C(=O)CC[C@H](N)C(=O)O [MNI-glutamate, 4-Methoxy-7-nitroindolinyl-caged-L-glutamate]
[1]
  quantum yield: 0.065

## enkephalin
Locus coeruleus
  increase of potency by peptidase inhibition: 10 fold

## Cc1cccc(NC(=O)N[C@@H]2N=C(c3ccccc3)c3ccccc3N(CC(=O)c3ccccc3C)C2=O)c1 [YM022, (R)-N-[2,3-Dihydro-1-[2-(2-methylphenyl)-2-oxoethyl]-2-oxo-5-phenyl-1H-1,4-benzodiazepin-3-yl]-N'-(3-methylphenyl)-urea]
CCK2R
  block of light-evoked CCK(8S)-NPP current: strongly attenuated

B1: progastrin-releasing peptide: prohormone of gastrin-releasing peptide, literature finding (protein, UniProt P07492 24-148, looked up)
pro-form: VPLPAGGGTVLTKMYPRGNHWAVGHLMGKKSTGESSSVSERGSLKQQLREYIRWEEAARNLLGLIEAKENRNHQPPQPKALGNQQPSWDSEDSSNFKDVGSKGKVGRLSAPGSQREGRNPQLNQQ
modifications: pro-form
notes: prohormone of gastrin-releasing peptide, literature finding
[2]
  receptor binding: does not bind
